# Results: US12441718B2, “Selective angiotensin II compounds” (VICORE PHARMA AB, priority 2021, dated 2025)
# Values joined by “and” are separate entries in the source; they are usually repeats but may differ in a detail not shown here. Equal entries are not always repeated. Where two headings read alike, the source gives them in different places.
# What was measured:
# [1] = molecular target: T1, CYP2B6 (Homo sapiens, UniProt P20813); assay: CYP inhibition in human liver microsomes (Eurofins ITEMG232); assay type: in vitro ADME; settings: probe bupropion, substrate bupropion, read-out: CYP2B6 Inh %
# T1 construct: isoform-specific substrates incubated with human liver microsomes; tissue Eurofins ITEMG232 (protocol number); host or cells: human liver microsomes
# T1 sequence (P20813 1-491): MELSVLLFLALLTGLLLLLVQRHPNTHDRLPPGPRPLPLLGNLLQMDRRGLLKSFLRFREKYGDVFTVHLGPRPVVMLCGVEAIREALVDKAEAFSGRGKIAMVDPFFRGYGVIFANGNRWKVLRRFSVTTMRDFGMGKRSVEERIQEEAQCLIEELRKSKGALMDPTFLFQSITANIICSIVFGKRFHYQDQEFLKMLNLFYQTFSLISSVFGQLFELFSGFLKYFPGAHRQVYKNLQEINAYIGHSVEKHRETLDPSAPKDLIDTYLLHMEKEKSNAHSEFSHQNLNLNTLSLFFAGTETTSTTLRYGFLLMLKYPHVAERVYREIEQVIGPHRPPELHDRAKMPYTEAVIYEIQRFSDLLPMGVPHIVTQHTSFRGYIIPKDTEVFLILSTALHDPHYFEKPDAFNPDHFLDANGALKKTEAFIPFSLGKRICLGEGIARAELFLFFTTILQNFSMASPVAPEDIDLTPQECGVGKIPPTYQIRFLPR
# [2] = molecular target: CYP2C9 (Homo sapiens, UniProt P11712); assay: as above; assay type: in vitro ADME; parameters: isoform-specific substrates incubated with human liver microsomes; tissue Eurofins ITEMG232 (protocol number); host or cells: human liver microsomes; settings: substrate diclofenac; for inhibition at 10 µM: human, probe diclofenac, read-out: CYP2C9 Inh %
# CYP2C9, sequence (P11712 whole entry, canonical isoform): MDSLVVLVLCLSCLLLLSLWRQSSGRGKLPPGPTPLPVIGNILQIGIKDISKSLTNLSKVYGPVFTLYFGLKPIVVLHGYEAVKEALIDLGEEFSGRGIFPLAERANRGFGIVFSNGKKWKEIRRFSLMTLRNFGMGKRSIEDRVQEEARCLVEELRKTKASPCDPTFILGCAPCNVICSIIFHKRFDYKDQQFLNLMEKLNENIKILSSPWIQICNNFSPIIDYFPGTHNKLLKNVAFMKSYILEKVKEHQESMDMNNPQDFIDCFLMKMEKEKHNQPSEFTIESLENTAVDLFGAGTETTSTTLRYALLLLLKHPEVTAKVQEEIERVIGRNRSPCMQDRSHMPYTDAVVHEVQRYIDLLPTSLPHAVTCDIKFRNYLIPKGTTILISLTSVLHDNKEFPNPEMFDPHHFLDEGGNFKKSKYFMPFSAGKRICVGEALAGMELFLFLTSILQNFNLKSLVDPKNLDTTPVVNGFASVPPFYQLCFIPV
# [3] = molecular target: T2, CYP2C8 (Homo sapiens, UniProt P10632); assay: as above; assay type: in vitro ADME; settings: substrate paclitaxel and amodiaquine; for inhibition at 10 µM: human, probe paclitaxel and amodiaquine, read-out: CYP2C8 Inh %
# T2 construct: isoform-specific substrates incubated with human liver microsomes; tissue Eurofins ITEMG232 (protocol number); host or cells: human liver microsomes
# T2 sequence (P10632 1-490): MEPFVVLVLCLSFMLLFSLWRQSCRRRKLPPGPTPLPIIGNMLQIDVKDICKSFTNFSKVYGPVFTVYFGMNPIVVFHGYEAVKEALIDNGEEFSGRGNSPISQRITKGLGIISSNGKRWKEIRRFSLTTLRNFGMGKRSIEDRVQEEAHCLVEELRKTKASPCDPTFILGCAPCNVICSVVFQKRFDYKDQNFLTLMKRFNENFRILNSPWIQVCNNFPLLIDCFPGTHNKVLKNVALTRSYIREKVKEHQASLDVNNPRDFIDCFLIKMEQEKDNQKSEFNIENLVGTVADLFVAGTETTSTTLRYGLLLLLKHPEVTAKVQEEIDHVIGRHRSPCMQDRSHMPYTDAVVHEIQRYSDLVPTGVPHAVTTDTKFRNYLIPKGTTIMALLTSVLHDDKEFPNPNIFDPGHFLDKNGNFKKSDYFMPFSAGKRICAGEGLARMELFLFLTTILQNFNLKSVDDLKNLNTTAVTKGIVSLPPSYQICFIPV
# [4] = molecular target: CYP3A4 (Homo sapiens, UniProt P08684); assay: CYP inhibition in human liver microsomes (Eurofins ITEMG232), midazolam substrate; assay type: in vitro ADME; parameters: isoform-specific substrates incubated with human liver microsomes; tissue Eurofins ITEMG232 (protocol number); host or cells: human liver microsomes; settings: for inhibition at 10 µM: human, probe midazolam, read-out: CYP3A4 midazolam Inh %
# CYP3A4, sequence (P08684 whole entry, canonical isoform): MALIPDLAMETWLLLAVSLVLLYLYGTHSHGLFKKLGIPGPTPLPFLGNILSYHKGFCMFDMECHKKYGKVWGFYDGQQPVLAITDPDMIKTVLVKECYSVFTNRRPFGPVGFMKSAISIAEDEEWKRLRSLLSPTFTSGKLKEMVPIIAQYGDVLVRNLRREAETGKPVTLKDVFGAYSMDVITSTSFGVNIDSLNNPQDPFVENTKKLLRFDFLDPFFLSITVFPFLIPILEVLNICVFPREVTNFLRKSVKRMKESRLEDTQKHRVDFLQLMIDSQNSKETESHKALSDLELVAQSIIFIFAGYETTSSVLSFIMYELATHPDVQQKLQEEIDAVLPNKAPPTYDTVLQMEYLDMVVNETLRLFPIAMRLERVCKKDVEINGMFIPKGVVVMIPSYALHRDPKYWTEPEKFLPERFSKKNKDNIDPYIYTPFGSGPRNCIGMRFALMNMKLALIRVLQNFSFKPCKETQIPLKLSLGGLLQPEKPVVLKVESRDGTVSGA
# [5] = molecular target: T3, CYP2D6 (Homo sapiens, UniProt P10635); assay: CYP inhibition in human liver microsomes (Eurofins ITEMG232); assay type: in vitro ADME; settings: probe dextromethorphan, substrate dextromethorphan, read-out: CYP2D6 Inh %
# T3 construct: isoform-specific substrates incubated with human liver microsomes; tissue Eurofins ITEMG232 (protocol number); host or cells: human liver microsomes
# T3 sequence (P10635 whole entry, canonical isoform): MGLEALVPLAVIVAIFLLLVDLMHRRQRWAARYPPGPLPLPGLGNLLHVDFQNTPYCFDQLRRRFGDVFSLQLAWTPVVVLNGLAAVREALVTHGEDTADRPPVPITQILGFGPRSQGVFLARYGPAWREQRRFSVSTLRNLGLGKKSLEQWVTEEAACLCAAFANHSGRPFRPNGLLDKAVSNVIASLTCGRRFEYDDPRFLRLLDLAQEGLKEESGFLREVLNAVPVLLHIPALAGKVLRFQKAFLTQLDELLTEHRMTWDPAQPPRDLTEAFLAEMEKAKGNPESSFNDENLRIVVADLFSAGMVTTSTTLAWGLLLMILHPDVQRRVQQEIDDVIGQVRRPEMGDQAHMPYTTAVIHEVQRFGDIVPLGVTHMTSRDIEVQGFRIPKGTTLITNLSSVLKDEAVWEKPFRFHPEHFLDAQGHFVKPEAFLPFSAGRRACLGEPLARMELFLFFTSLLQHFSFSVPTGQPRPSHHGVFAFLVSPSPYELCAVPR
# [6] = tested on: CYP3A4&5; assay: in vitro; settings: human, human liver microsomes, probe testosterone;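 further: Read-out is the metabolite generated from the probe substrate, quantified as HPLC-MS/MS peak area once incubation ends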
# [7] = molecular target: T4, CYP2C19 (Homo sapiens, UniProt P33261); assay: CYP inhibition in human liver microsomes (Eurofins ITEMG232); assay type: in vitro ADME; settings: substrate omeprazole; for inhibition at 10 µM: human, probe omeprazole, read-out: CYP2C19 Inh %
# T4 construct: isoform-specific substrates incubated with human liver microsomes; tissue Eurofins ITEMG232 (protocol number); host or cells: human liver microsomes
# T4 sequence (P33261 whole entry, canonical isoform): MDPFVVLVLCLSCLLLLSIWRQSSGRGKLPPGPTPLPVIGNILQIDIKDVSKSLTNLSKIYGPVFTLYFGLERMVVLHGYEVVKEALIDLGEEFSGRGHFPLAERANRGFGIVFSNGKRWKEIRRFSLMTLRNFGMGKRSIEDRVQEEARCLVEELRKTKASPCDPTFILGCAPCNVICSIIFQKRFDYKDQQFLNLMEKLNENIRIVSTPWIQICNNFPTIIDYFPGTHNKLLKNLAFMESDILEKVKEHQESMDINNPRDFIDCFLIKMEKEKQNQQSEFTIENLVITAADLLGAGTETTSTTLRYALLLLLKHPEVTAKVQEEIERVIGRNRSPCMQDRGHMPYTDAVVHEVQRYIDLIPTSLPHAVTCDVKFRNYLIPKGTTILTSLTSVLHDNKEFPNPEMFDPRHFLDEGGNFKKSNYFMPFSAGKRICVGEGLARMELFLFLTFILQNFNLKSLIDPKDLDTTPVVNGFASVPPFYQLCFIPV
# [8] = Metabolic stability in pooled human liver microsomes; assay type: in vitro ADME; settings: pooled human liver microsomes 0.5 mg/mL, 1 μM test compound, 37° C., * rows = mean of two runs; for half-life at 1 μM: human, pooled human liver microsomes
# Description: Pooled human liver microsomes in PBS at a concentration of 0.5 mg/mL was incubated with or without 1 mM NADPH for 70 min at 37° C. Test compound was added after 10 minutes to a final concentration of 1 μM. Samples were withdrawn at 0, 5, 15 and 60 minutes and added to test tubes containing acetonitrile, to stop the reaction, and with terfenadine, used as internal standard. After centrifugation at 10 000×g for 5 minutes the supernatant was diluted 1:1 with 1% formic acid. Samples were separated on a reverse phase column and detected by triple quadrupole MSMS (Agilant model 6540). The concentration of the parent compound at the different time points was measured with an external standard curve using terfenadine as internal standard and the initial metabolic rate in the presence or absence of NADPH calculated.
# [9] = molecular target: T5, CYP1A2 (Homo sapiens, UniProt P05177); assay: in vitro; assay type: in vitro ADME; settings: human liver microsomes, substrate phenacetin; for inhibition at 10 µM: human, microsomes, read-out: CYP1A2 Inh %
# T5 construct: isoform-specific substrates incubated with human liver microsomes; tissue Eurofins ITEMG232 (protocol number); host or cells: human liver microsomes
# T5 sequence (P05177 whole entry, canonical isoform): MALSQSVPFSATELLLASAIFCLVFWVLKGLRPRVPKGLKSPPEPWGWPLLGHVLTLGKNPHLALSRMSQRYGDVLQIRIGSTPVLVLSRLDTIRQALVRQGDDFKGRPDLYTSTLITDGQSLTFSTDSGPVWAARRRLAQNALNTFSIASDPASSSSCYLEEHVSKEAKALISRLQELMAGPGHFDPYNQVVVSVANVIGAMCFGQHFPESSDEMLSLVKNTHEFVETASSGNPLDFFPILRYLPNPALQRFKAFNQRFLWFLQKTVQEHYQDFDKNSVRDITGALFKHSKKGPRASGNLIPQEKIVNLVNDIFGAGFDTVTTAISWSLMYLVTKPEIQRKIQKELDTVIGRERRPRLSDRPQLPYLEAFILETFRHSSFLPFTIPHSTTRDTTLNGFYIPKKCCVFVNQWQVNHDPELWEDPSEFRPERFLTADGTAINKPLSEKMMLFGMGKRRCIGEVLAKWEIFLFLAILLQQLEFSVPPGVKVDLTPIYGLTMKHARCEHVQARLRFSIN
# Description: The following substrates were used; CYP1A phenacetin, CYP2B36 bupropion, CYP2C8 paclitaxel and amodiaquine, CYP2C9 diclofenac, CYP2C19 omeprazole, CYP2D6 dextromethorphan, CYP3A midazolam and testosterone.
# At the end of the incubation, the formation of metabolite was monitored by HPLC-MS/MS as the peak area response.
# [10] = molecular target: T6, human recombinant AT2 receptor (Homo sapiens, UniProt P50052); assay: Binding to AT2 receptor, radiometric scintillation assay (Eurofins ITEM26); settings: ligand 125I CGP 42112A, * rows = mean of runs; for Ki: seven-point dose-response curve; for IC50: test compounds at 1, 10, 100 and 1000 nM, read-out: AT2 GraFit IC50
# T6 construct: purchased Eurofins ITEM26 (protocol number)
# T6 sequence (P50052 1-363): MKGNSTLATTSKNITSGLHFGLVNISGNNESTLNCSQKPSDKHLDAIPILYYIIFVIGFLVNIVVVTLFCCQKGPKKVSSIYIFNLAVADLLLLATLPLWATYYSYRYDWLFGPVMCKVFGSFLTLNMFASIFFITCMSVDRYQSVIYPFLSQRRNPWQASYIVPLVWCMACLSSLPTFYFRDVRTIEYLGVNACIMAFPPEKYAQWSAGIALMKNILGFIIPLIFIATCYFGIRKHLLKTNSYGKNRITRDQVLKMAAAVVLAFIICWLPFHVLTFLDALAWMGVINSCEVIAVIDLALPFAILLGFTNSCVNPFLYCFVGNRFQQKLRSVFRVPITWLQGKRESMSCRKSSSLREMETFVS
# [11] = with 1 mM NADPH, read-out: T1/2, + NaDPH
# [12] = without NADPH, read-out: T1/2, no NaDPH
"half-life at 1 μM [8, 11] [min]","half-life at 1 μM [8, 12] [min]",Ki [10],IC50 [10],other results,Compound
> 60,> 60,,,inhibition at 10 µM [1]: 14%; inhibition at 10 µM [2]: 46%; inhibition at 10 µM [3]: 88.7%; inhibition at 10 µM [4]: 36%; inhibition at 10 µM [5]: 5.7%; inhibition at 10 µM [6]: 3.3%; inhibition at 10 µM [7]: 37%; inhibition at 10 µM [9]: 84%,"CC(C)Cc1ccc(S(=O)(=O)Nc2ncc(Cl)cn2)c(-c2ccc(Cn3ccnc3C(C)(C)C)cc2)c1 [Example 2, 4′-((2-(tert-Butyl)-1H-imidazol-1-yl)methyl)-N-(5-chloropyrimidin-2-yl)-5-isobutyl-[1,1′-biphenyl]-2-sulfonamide]"
43,> 60,,,inhibition at 10 µM [1]: 56.5%; inhibition at 10 µM [2]: 72.9%; inhibition at 10 µM [3]: 92.1%; inhibition at 10 µM [4]: -11.4%; inhibition at 10 µM [5]: 44.5%; inhibition at 10 µM [6]: 56%; inhibition at 10 µM [7]: 70.1%; inhibition at 10 µM [9]: 19.2%,"CC(C)Cc1ccc(S(=O)(=O)Nc2nccs2)c(-c2ccc(Cn3ccnc3C(C)(C)C)cc2)c1 [Example 5, 4′-((2-(tert-Butyl)-1H-imidazol-1-yl)methyl)-5-isobutyl-N-(thiazol-2-yl)-[1,1′-biphenyl]-2-sulfonamide]"
,,,,CYP2C9 Inh % ([2]; 10 μM): 37.1% and 71.9%; CYP2C8 Inh % ([3]; 10 μM): 49.2% and 95.6%; CYP3A4 midazolam Inh % ([4]; 10 μM): 28.2% and 48.5%; CYP2C19 Inh % ([7]; 10 μM): 38.6% and 66.6%; CYP1A2 Inh % ([9]; 10 μM): 36.2% and 65.6%,"CC(C)Cc1ccc(S(=O)(=O)Nc2ncc(C#N)cn2)c(-c2ccc(Cn3ccnc3C(C)(C)C)cc2)c1 [Example 6, 4′-((2-(tert-Butyl)-1H-imidazol-1-yl)methyl)-N-(5-cyanopyrimidin-2-yl)-5-isobutyl-[1,1′-biphenyl]-2-sulfonamide]"
7,> 60,,,inhibition at 10 µM [1]: 40.4%; inhibition at 10 µM [2]: 90.8%; inhibition at 10 µM [3]: 59.7%; inhibition at 10 µM [4]: 98.4%; inhibition at 10 µM [5]: 16.4%; inhibition at 10 µM [6]: 97.9%; inhibition at 10 µM [7]: 87.8%; inhibition at 10 µM [9]: 9.7%,"COc1ncncc1NS(=O)(=O)c1ccc(CC(C)C)cc1-c1ccc(Cn2ccnc2C(C)(C)C)cc1 [Example 18, 4′-((2-(tert-Butyl)-1H-imidazol-1-yl)methyl)-5-isobutyl-N-(4-methoxypyrimidin-5-yl)-[1,1′-biphenyl]-2-sulfonamide]"
17,> 60,38.3 nM and 24.5 nM and 31.4 nM,76.6 nM and 49 nM and 62.8 nM,"T1/2, + NaDPH ([8]; with 1 mM NADPH): 11 min; T1/2, + NaDPH ([8]; with 1 mM NADPH, listed as Example 34*): 14 min","COc1cc(NS(=O)(=O)c2ccc(CC(C)C)cc2-c2ccc(Cn3ccnc3C(C)(C)C)cc2)nc(OC)n1 [Example 34, 4′-((2-(tert-Butyl)-1H-imidazol-1-yl)methyl)-N-(2,6-dimethoxypyrimidin-4-yl)-5-isobutyl-[1,1′-biphenyl]-2-sulfonamide]"
42,> 60,5.99 nM,12 nM,,"COc1cnc(NS(=O)(=O)c2ccc(CC(C)C)cc2-c2ccc(Cn3ccnc3C(C)(C)C)cc2)nc1 [Example 36, 4′-((2-(tert-Butyl)-1H-imidazol-1-yl)methyl)-5-isobutyl-N-(5-methoxypyrimidin-2-yl)-[1,1′-biphenyl]-2-sulfonamide]"
> 60,> 60,0.58 nM,1.16 nM,,"Cc1nccn1Cc1ccc(-c2cc(CC(C)C)ccc2S(=O)(=O)Nc2ncccn2)cc1 [Example 37, 5-Isobutyl-4′-((2-methyl-1H-imidazol-1-yl)methyl)-N-(pyrimidin-2-yl)-[1,1′-biphenyl]-2-sulfonamide]"
58,> 60,1.38 nM,2.76 nM,,"CC(C)Cc1ccc(S(=O)(=O)Nc2ncccn2)c(-c2ccc(Cn3ccnc3)cc2)c1 [Example 38, 4′-((1H-Imidazol-1-yl)methyl)-5-isobutyl-N-(pyrimidin-2-yl)-[1,1′-biphenyl]-2-sulfonamide]"
> 60,> 60,0.3 nM,0.6 nM,,"CC(C)Cc1cc(-c2ccc(Cn3ccnc3C(C)(C)C)c(F)c2)c(S(=O)(=O)Nc2ncccn2)s1 [Example 43, 3-(4-((2-(tert-Butyl)-1H-imidazol-1-yl)methyl)-3-fluorophenyl)-5-isobutyl-N-(pyrimidin-2-yl)thiophene-2-sulfonamide]"
> 60,> 60,0.33 nM,0.65 nM,,"CC(C)Cc1cc(-c2ccc(Cn3ccnc3C(C)C)c(F)c2)c(S(=O)(=O)Nc2ncccn2)s1 [Example 46, 3-(3-Fluoro-4-((2-isopropyl-1H-imidazol-1-yl)methyl)phenyl)-5-isobutyl-N-(pyrimidin-2-yl)thiophene-2-sulfonamide]"
> 60,> 60,0.77 nM,1.53 nM,,"CC(C)Cc1cc(-c2ccc(Cn3ccnc3C3CC3)cc2)c(S(=O)(=O)Nc2ncccn2)s1 [Example 52, 3-(4-((2-Cyclopropyl-1H-imidazol-1-yl)methyl)phenyl)-5-isobutyl-N-(pyrimidin-2-yl)thiophene-2-sulfonamide]"
